For assay [1], the target named is T1, HyNaC2/3/5 (Hydra vulgaris (Hydra magnipapillata), UniProt A8DZR6+A8DZR7+D3UD58). Nature of the assay: Activation of HyNaC2/3/5 expressed in Xenopus oocytes by Hydra-RFamides (TEVC). Format: cell-based. As to the method: (§1) To study the biophysical properties of the new HyNaCs, cRNA of HyNaCs was synthesized in vitro (mMessage mMachine kit, Ambion, Austin, Texas, USA) and injected into Xenopus laevis oocytes of stage V and VI. After injection, oocytes were incubated for one to two days at 19°C in oocyte Ringer’s solution 2 (OR-2), which contained (in mM): 82.5 NaCl, 2.5 KCl, 1.0 Na2HPO4, 1.0 MgCl2, 1.0 CaCl2, 5.0 HEPES, 0.5 g/l PVP, 1,000 U/l penicillin and 10 mg/l streptomycin, NaOH was used to adjust pH to 7.3. Whole cell currents were recorded from defolliculated oocytes by two-electrode voltage-clamp (TEVC) using the amplifier TurboTec 03X (npi electronic GmbH, Tamm, Germany). Standard bath solution (in mM: 140 NaCl, 10 HEPES, 1.8 CaCl2 and 1.0 MgCl2. NaOH was used to adjust pH to 7.4.) was exchanged by a pump driven system combined with the oocyte testing carousel (OTC), which was controlled by the interface OTC-20 [53]. To control the OTC-20 and to record the data to the hard drive, the software CellWorks (version 5.1.1; npi electronic GmbH, Tamm, Germany) was used. Data were sampled at 0.1 to 1 kHz and filtered at 20 Hz. HyNaCs are permeable for Ca^2+, activating an endogenous CaCC [40]. Therefore, unless otherwise indicated, oocytes were injected with 50 nl of 20 mM EGTA 30 to 180 minutes before measurements. Reversal potentials and Ca^2+ permeabilities of HyNaCs were studied as described previously.
T1 sequence (A8DZR6 entry or part of it): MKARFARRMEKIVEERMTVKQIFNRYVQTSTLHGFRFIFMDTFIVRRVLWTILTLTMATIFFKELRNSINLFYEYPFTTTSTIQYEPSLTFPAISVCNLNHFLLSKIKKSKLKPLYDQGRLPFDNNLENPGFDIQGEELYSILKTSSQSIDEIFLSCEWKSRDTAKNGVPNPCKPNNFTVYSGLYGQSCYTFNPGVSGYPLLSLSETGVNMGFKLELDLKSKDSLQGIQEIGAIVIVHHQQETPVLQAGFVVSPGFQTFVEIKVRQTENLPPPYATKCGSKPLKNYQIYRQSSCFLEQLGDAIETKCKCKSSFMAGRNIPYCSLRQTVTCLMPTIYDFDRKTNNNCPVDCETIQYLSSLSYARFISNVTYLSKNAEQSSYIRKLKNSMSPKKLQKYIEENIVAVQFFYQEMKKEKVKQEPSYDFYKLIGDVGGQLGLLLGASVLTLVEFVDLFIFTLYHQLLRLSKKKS
T1 sequence (D3UD58 entry or part of it): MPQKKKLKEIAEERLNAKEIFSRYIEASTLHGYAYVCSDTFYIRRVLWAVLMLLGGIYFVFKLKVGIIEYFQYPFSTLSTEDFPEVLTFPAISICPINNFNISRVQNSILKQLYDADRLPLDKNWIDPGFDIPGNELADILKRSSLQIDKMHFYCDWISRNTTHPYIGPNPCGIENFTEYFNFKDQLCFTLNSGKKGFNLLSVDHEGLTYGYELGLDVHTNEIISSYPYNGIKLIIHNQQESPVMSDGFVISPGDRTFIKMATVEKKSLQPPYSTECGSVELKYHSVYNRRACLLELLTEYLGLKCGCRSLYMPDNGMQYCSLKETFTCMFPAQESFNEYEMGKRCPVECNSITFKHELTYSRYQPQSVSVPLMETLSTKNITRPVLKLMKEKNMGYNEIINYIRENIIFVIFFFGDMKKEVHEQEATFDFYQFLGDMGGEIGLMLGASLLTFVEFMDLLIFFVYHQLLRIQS
T1 sequence (A8DZR7 entry or part of it): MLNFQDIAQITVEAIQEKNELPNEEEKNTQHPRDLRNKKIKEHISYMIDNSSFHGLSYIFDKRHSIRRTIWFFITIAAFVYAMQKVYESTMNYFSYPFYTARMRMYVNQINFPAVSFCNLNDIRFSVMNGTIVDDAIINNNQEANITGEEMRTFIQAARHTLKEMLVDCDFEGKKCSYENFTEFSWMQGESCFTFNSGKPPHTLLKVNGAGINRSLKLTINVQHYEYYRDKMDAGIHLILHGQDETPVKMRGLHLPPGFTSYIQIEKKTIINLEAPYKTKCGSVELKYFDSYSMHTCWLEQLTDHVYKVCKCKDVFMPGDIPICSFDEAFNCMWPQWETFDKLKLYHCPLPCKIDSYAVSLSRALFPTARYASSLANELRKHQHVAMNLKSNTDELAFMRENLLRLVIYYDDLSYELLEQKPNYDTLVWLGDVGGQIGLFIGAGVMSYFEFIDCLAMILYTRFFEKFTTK
(§2) EC50 values for Hydra-RFamides I and II as well as IC50 values for diminazene were determined by fits to the Hill equation using IGOR Pro (version 6.06, WaveMetrics, Inc.). Reversal potentials were defined as the first recorded data point, where currents reversed signs from negative to positive. For I/V relationships, voltage ramps in the absence of the agonist were used to subtract background conductances. Results are reported as mean ± standard error.

The target of assay [2] is T2, HyNaC2/11/5 (Hydra vulgaris (Hydra magnipapillata), UniProt A0A0A0MP55+A8DZR6+D3UD58). Kind of assay: Activation of HyNaC2/11/5 expressed in Xenopus oocytes by Hydra-RFamides (TEVC). Format: cell-based. As to the method:
as §1, §2

The target of assay [3] is T3, HyNaC2/3/6 (Hydra vulgaris (Hydra magnipapillata), UniProt A0A0A0MP54+A8DZR6+A8DZR7). Kind of assay: Activation of HyNaC2/3/6 expressed in Xenopus oocytes by Hydra-RFamides (TEVC). Type of assay: cell-based. The method, then: as §1, §2
T3 sequence (A0A0A0MP54 entry or part of it): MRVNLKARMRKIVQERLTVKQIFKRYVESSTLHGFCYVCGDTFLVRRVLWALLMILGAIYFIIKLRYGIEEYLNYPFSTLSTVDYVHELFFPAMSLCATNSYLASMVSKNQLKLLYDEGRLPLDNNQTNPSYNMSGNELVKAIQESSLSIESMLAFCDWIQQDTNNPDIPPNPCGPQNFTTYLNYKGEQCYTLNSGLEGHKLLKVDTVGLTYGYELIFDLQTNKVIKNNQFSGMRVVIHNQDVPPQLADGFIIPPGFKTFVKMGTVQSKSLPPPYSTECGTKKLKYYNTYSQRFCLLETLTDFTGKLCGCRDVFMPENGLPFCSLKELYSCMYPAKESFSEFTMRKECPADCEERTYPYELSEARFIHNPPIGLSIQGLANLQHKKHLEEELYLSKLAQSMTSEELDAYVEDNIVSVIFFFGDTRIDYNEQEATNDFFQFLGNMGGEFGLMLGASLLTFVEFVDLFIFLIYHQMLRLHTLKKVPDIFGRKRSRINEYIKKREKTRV
T3 sequence (A8DZR7 entry or part of it): as the sequence (A8DZR7 entry or part of it) above
T3 sequence (A8DZR6 entry or part of it): as the sequence (A8DZR6 entry or part of it) above
Assay [4] concerns the target T4, HyNaC2/4/6 (Hydra vulgaris (Hydra magnipapillata), UniProt A0A0A0MP54+A8DZR6+A8DZR8). Kind of assay: Activation of HyNaC2/4/6 expressed in Xenopus oocytes by Hydra-RFamides (TEVC). Type of assay: cell-based. As to the method:
as §1, §2

Assay [5] concerns the target T5, HyNaC2/3/7 (Hydra vulgaris (Hydra magnipapillata), UniProt A0A0A0MP73+A8DZR6+A8DZR7). Nature of the assay: Activation of HyNaC2/3/7 expressed in Xenopus oocytes by Hydra-RFamides (TEVC). Type of assay: cell-based. As to the method: as §1, §2
In assay [6] the target is T6, HyNaC2/9/7 (Hydra vulgaris (Hydra magnipapillata), UniProt A0A0A0MP48+A0A0A0MP73+A8DZR6). Kind of assay: Activation of HyNaC2/9/7 expressed in Xenopus oocytes by Hydra-RFamides (TEVC). Type of assay: cell-based. The method, then: as §1, §2
T6 sequence (A0A0A0MP48 entry or part of it): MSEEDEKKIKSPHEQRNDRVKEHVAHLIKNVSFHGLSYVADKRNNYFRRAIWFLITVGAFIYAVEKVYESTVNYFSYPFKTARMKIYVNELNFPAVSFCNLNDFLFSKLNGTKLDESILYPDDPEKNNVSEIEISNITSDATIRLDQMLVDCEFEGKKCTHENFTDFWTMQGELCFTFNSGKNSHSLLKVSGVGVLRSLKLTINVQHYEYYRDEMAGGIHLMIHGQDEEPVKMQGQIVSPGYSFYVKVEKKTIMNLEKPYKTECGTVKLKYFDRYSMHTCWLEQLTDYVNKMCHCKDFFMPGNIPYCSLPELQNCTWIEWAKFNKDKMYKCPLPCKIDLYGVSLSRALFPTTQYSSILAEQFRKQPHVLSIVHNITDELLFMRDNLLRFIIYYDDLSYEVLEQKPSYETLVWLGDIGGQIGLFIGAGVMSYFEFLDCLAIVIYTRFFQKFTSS
T6 sequence (A8DZR6 entry or part of it): as the sequence (A8DZR6 entry or part of it) above
T6 sequence (A0A0A0MP73 entry or part of it): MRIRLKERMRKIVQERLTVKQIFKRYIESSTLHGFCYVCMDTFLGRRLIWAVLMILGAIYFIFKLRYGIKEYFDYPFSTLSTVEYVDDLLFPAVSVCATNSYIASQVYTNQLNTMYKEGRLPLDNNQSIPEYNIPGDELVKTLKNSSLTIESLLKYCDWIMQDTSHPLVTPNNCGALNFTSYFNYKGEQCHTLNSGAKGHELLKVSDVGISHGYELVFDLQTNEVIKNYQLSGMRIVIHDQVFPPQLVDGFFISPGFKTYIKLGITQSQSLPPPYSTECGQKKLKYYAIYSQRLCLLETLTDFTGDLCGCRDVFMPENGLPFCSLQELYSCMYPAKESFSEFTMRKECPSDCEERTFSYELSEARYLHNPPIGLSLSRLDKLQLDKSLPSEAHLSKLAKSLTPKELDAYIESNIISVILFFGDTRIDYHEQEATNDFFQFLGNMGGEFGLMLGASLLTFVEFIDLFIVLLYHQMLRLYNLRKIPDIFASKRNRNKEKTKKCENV
For assay [7], the target named is T7, HyNaC2/10/7 (Hydra vulgaris (Hydra magnipapillata), UniProt A0A0A0MP61+A0A0A0MP73+A8DZR6). Nature of the assay: Activation of HyNaC2/10/7 expressed in Xenopus oocytes by Hydra-RFamides (TEVC). Conditions: EGTA-injected oocytes, saturating ligand concentration not reached. Format: cell-based. The method, then:
as §1, §2

Assay [8] concerns functional HyNaC heterotrimer. Nature of the assay: Screen of functional HyNaC heterotrimers in Xenopus oocytes for activation by Hydra-RFamides. Type of assay: cell-based, Hydra magnipapillata. To be noted: 5 μM peptide; Xenopus oocytes. The method, then:
We tested the function of the new HyNaCs by co-expression of different HyNaC subunit combinations in Xenopus oocytes. We screened for functional subunit combinations by application of 5 μM Hydra-RFamide I, a potent agonist of HyNaC2/3/5 [4]. When we expressed an individual HyNaC subunit we could never elicit currents. […] When HyNaC2 was part of the injected cRNA pool, however, Hydra-RFamide I elicited currents. Simultaneous expression of HyNaC2 with a single other HyNaC resulted only in a functional channel when we co-expressed HyNaC2 and HyNaC3; it was already known that HyNaC2 and HyNaC3 form a low-affinity peptide-gated channel.
Dashed line represents the zero current level. Amino acid sequences of Hydra-RFamides I to V are shown at the bottom. HyNaC, Hydra Na^+ channel.
Since Hydra-RFamide II had been shown previously to activate HyNaC2/3/5 [4], we tested Hydra-RFamides II to V for channel activation.
as §1

The subject of the next assay is HyNaC2/9/5. Kind of assay: Activation of HyNaC2/9/5 in Xenopus oocytes by Hydra-RFamides. Conditions: channel opened by lowering extracellular Ca2+. Type of assay: cell-based, Hydra magnipapillata. The method, then: (§3) The contribution of the distantly related HyNaC12 to peptide-gated channels was assessed by co-expression with HyNaC2 and one or several other HyNaCs (HyNaC3 to HyNaC11). In addition, HyNaC12 was co-expressed with pools of different HyNaCs without HyNaC2. […] In fact, all HyNaCs that were activated by Hydra-RFamide I were opened by lowering the extracellular Ca^2+ concentration ([Ca^2+]e) to 10 nM (Figure 4). […] Some DEG/ENaCs are constitutively opened by an amino acid substitution at the so-called DEG-position. To further investigate whether HyNaC12 forms a functional homomeric channel, we substituted a glycine at the DEG-position by threonine (G436T), which has a large side chain. This substitution did, however, not constitutively open HyNaC12 (data not shown). This applies also for the co-expression of HyNaC12-G436T together with pools of different wild-type HyNaC subunits, leaving the function of HyNaC12 unknown.
(§4) To study the biophysical properties of the new HyNaCs, cRNA of HyNaCs was synthesized in vitro (mMessage mMachine kit, Ambion, Austin, Texas, USA) and injected into Xenopus laevis oocytes of stage V and VI. […] Whole cell currents were recorded from defolliculated oocytes by two-electrode voltage-clamp (TEVC) using the amplifier TurboTec 03X (npi electronic GmbH, Tamm, Germany). […]

For assay [9], the system named is HyNaCs containing HyNaC12. Kind of assay: Activation of HyNaC12-containing subunit combinations in Xenopus oocytes by Hydra-RFamides. Format: cell-based, Hydra magnipapillata. To be noted: HyNaC12 co-expressed with HyNaC2 and other HyNaCs or pools; 5 μM peptide. The method, then: as §3, with “unknown. […]” for “unknown.”
as §4

The target of assay [10] is T1, HyNaC2/3/5. On the set-up: method as in PMID 20159980. Conditions: for comparison, ref [4], read-out: EC50 for Hydra-RFamide I; cited from earlier work.
Assay [11] deals with T1, HyNaC2/3/5. Kind of assay: Inhibition of HyNaC2/3/5 currents in Xenopus oocytes (TEVC). Format: cell-based. Conditions: read-out: IAmil/I, relative current remaining after block by 100 μM amiloride. The method, then: (§5) One of the hallmarks of DEG/ENaCs is the block by the diuretic amiloride.
(§6) Figure 10 Diminazene is a potent inhibitor of HyNaCs. A) Current trace illustrating the concentration-dependent inhibition of HyNaC2/9/7 by diminazene. Block by 100 μM amiloride was used to compare the affinity for diminazene and amiloride. […] Dashed lines represent the zero current level. B) Concentration-response curves showing the concentration-dependent inhibition of HyNaCs by diminazene. HyNaCs, Hydra Na^+ channels.
as §4
(§7) EC50 values for Hydra-RFamides I and II as well as IC50 values for diminazene were determined by fits to the Hill equation using IGOR Pro (version 6.06, WaveMetrics, Inc.). Reversal potentials were defined as the first recorded data point, where currents reversed signs from negative to positive. […]

In assay [12] the target is T2, HyNaC2/11/5. Kind of assay: Inhibition of HyNaC2/11/5 currents in Xenopus oocytes (TEVC). Format: cell-based. To be noted: read-out: IAmil/I, relative current remaining after block by 100 μM amiloride. The method, then: as §5, §6, §4, §7
Assay [13] has as its target T3, HyNaC2/3/6. Kind of assay: Inhibition of HyNaC2/3/6 currents in Xenopus oocytes (TEVC). Format: cell-based. Conditions: read-out: IAmil/I, relative current remaining after block by 100 μM amiloride. As to the method:
as §5, §6, §4, §7

Assay [14] addresses T4, HyNaC2/4/6. Nature of the assay: Inhibition of HyNaC2/4/6 currents in Xenopus oocytes (TEVC). Type of assay: cell-based. Conditions: read-out: IAmil/I, relative current remaining after block by 100 μM amiloride. The method, then: as §5, §6, §4, §7
In assay [15] the target is T5, HyNaC2/3/7. Kind of assay: Inhibition of HyNaC2/3/7 currents in Xenopus oocytes (TEVC). Type of assay: cell-based. Conditions: read-out: IAmil/I, relative current remaining after block by 100 μM amiloride. The method, then: as §5, §6, §4, §7
The target of assay [16] is T6, HyNaC2/9/7. Kind of assay: Inhibition of HyNaC2/9/7 currents in Xenopus oocytes (TEVC). To be noted: read-out: IAmil/I, relative current remaining after block by 100 μM amiloride. Format: cell-based. The method, then: as §5, §6, §4, §7
In assay [17] the target is T7, HyNaC2/10/7. Kind of assay: Inhibition of HyNaC2/10/7 currents in Xenopus oocytes (TEVC). Type of assay: cell-based. Conditions: read-out: IAmil/I, relative current remaining after block by 100 μM amiloride. As to the method: as §5, §6, §4, §7
The target of assay [18] is T1, HyNaC2/3/5. On the set-up: method as in PMID 20159980. Conditions: ref [4], read-out: IC50 (apparent amiloride affinity); cited from earlier work.
The subject of a further assay is Hydra magnipapillata. On the set-up: method as in PMID 20159980. Conditions: 100 μM amiloride; ref [4]; cited from earlier work.
Where [19] appears, read: EGTA-injected oocytes, read-out: EC50 RFa I.
[20] abbreviates: Hydra-RFamide I concentration-response.

Values joined by “and” are separate entries in the source; they are usually repeats but may differ in a detail not shown here. Equal values may be shown once. “Also recorded” adds a separate entry of the source. Read-outs that look alike come from different tables or passages of the source.

T4 sequence (A8DZR8 entry or part of it): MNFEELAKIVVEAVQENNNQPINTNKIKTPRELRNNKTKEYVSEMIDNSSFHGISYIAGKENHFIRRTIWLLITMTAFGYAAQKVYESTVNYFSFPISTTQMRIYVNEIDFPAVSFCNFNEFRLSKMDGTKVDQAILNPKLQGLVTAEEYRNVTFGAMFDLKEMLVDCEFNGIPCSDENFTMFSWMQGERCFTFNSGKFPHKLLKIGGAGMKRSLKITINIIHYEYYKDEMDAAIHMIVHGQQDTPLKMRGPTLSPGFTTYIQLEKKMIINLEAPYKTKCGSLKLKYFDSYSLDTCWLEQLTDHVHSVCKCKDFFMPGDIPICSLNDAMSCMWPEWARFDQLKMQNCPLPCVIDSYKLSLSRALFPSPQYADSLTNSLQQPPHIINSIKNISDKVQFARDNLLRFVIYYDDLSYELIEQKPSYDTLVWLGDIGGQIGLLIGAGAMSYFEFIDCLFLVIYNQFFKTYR
T4 sequence (A0A0A0MP54 entry or part of it): as the sequence (A0A0A0MP54 entry or part of it) above
T4 sequence (A8DZR6 entry or part of it): as the sequence (A8DZR6 entry or part of it) above
T2 sequence (A0A0A0MP55 entry or part of it): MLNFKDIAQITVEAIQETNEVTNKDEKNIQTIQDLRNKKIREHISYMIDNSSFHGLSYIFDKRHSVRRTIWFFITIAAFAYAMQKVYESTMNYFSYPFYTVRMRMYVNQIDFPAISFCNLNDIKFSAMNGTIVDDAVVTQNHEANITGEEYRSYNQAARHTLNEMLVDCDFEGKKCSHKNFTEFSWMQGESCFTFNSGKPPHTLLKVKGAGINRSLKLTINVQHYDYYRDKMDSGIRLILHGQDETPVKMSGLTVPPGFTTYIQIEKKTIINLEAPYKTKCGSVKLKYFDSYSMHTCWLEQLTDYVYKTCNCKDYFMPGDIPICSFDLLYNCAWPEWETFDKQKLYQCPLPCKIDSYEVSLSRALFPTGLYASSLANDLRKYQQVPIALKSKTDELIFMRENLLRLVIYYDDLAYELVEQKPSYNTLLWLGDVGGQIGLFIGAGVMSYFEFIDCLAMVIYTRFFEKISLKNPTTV
T2 sequence (A8DZR6 entry or part of it): as the sequence (A8DZR6 entry or part of it) above
T2 sequence (D3UD58 entry or part of it): as the sequence (D3UD58 entry or part of it) above
T7 sequence (A0A0A0MP61 entry or part of it): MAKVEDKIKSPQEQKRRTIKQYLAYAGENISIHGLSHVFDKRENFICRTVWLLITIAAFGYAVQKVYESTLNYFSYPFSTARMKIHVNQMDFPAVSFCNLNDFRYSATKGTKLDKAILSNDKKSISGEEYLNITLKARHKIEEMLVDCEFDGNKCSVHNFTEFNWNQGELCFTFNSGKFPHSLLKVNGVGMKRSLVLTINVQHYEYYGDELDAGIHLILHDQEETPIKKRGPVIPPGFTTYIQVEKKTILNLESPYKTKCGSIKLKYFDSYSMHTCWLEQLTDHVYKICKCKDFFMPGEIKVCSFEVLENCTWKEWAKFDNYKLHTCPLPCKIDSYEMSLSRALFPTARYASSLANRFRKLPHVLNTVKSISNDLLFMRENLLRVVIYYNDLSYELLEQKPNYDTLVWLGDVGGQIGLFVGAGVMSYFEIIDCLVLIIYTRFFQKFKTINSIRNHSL
T7 sequence (A0A0A0MP73 entry or part of it): as the sequence (A0A0A0MP73 entry or part of it) above
T7 sequence (A8DZR6 entry or part of it): as the sequence (A8DZR6 entry or part of it) above
T5 sequence (A8DZR7 entry or part of it): as the sequence (A8DZR7 entry or part of it) above
T5 sequence (A0A0A0MP73 entry or part of it): as the sequence (A0A0A0MP73 entry or part of it) above
T5 sequence (A8DZR6 entry or part of it): as the sequence (A8DZR6 entry or part of it) above

The EC50 is the concentration at which the effect is half-maximal. For the molecule Hydra-RFamide I, the “Imax RFa I, current amplitude at maximal concentration of Hydra-RFamide I” value is 9.2 ± 1.9 μA and 9.2 ± 1.9 (9) μA at HyNaC2/3/5 [1] (EGTA-injected oocytes); 15.7 ± 3.2 μA and 15.7 ± 3.2 (10) μA at HyNaC2/3/6 [3] (EGTA-injected oocytes); 19.6 ± 1.8 μA and 19.6 ± 1.8 (14) μA at HyNaC2/3/7 [5] (EGTA-injected oocytes). Also, the EC50 came to 3.48 ± 0.55 µM on HyNaC2/3/5 [1] (setting [19]); 13.8 ± 1.9 µM on HyNaC2/11/5 [2] (setting [19]); 0.29 ± 0.06 µM at HyNaC2/3/6 [3] (EGTA-injected oocytes); 0.7 ± 0.08 µM on HyNaC2/4/6 [4] (EGTA-injected oocytes); 0.19 ± 0.04 µM at HyNaC2/3/7 [5] (EGTA-injected oocytes); 0.04 ± 0.01 µM at HyNaC2/9/7 [6] (setting [19]). For the same molecule, the EC50 was more than 30 µM at HyNaC2/10/7 [7] and approximately 5 µM on HyNaC2/3/5 [10]. For the same molecule, the “Hill Coeff.” value on HyNaC2/3/5 [1] (setting [20]) amounted to 1.2 ± 0.1; at HyNaC2/11/5 [2] (setting [20]) it was 0.9 ± 0.1; on HyNaC2/3/6 [3] (setting [20]) it was 1.2 ± 0.2; on HyNaC2/4/6 [4] (setting [20]), 1.3 ± 0.1; on HyNaC2/3/7 [5] (setting [20]), 1.6 ± 0.4; on HyNaC2/9/7 [6] (setting [20]) it was 1.5 ± 0.3. Besides, the “EC50 RFa I” value on HyNaC2/10/7 [7] was “too low to calculate the EC50 precisely”. Besides, the “activation of functional HyNaC heterotrimers (current elicited)” value in assay [8] was “activation of HyNaCs”. In addition, in the assay with HyNaC2/9/5, the “activation of HyNaC2/9/5” value was “insensitive; also recorded: not activated”. Also, the “activation of channels containing HyNaC12” value in assay [9] is “In no case did this result in channels that could be activated”.

Broadly, the IC50 is the point on the concentration scale where inhibition reaches its midpoint. As to `N=C(N)NC(=O)c1nc(Cl)c(N)nc1N` [amiloride], the remaining activity at 100 µM turned out to be 50 ± 10% at HyNaC2/3/5 [11]; 70 ± 10% on HyNaC2/11/5 [12]; 30 ± 10% on HyNaC2/3/6 [13]; 30 ± 10% at HyNaC2/4/6 [14]; 30 ± 10% at HyNaC2/3/7 [15]; 30 ± 10% on HyNaC2/9/7 [16]. Moreover, the remaining activity at 100 µM on HyNaC2/10/7 [17] stood at 80 ± 10%. The IC50 at HyNaC2/3/5 [18] was approximately 120 µM. Moreover, the “feeding reaction of living Hydra” value in the assay with Hydra magnipapillata is reported as “delays the feeding reaction”.

The record behind these values is article PMC4212090, “The comprehensive analysis of DEG/ENaC subunits in Hydra reveals a large variety of peptide-gated channels, potentially involved in neuromuscular transmission” (BMC Biology, 2014).
